IC50 and half-life data for two molecules are collected here from patent US20100075907A1, “NEUROMEDIN U RECEPTOR AGONISTS AND USES THEREOF” (priority 2006, published 2010).

The target in one data set is T1, hNMUR1 (Homo sapiens, UniProt Q9HB89).
T1 sequence (Q9HB89 1-426): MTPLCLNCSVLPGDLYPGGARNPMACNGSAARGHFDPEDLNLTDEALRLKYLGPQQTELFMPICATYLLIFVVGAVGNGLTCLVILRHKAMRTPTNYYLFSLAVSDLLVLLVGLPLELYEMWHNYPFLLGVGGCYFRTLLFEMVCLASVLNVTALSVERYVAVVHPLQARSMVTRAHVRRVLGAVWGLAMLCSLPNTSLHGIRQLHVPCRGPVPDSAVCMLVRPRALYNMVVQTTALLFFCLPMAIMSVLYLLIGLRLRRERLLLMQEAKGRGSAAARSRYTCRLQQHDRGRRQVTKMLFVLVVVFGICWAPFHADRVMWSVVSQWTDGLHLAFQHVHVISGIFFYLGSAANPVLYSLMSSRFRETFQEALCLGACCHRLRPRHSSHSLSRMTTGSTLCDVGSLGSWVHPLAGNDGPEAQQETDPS
The data set can be described thus: FLIPR calcium mobilization assay, human NMUR1. In kind it is cell-based. Further details: expressed in transfected cells; host or cells: FLP-In CHO or HEK-293 FLP-In cells (pcDNA5); HEK-293/aeq17 lines (pIRES-puro) were also made. To be noted: functional data, human R1.

The next data set can be described thus: in vitro. To be noted: human, plasma.

Non-standard residues stand in square brackets, D forms with d. Residues, ends and D or L forms follow the SMILES beside them.

As usually defined, the IC50 is the concentration that gives 50% inhibition. For orientation: half-life means the time in which the quantity being followed falls by half. High values mean slow decline, low ones rapid decline. For the molecule “H-FRVDEEFQSPFASQSRGYFLFRPRN-NH2 [hNMU-25, reference compound]”, the IC50 at hNMUR1 turned out to be 0.2 nM. This molecule also came in with a half-life at 1 μM in the data set “in vitro” of less than 16 h. With `CC(C)C[C@@H](NC(=O)[C@H](Cc1ccccc1)NC(=O)[C@H](Cc1ccc(O)cc1)NC(=O)CNC(=O)[C@H](CCCNC(=N)N)NC(=O)[C@H](CO)NC(=O)[C@H](CCC(N)=O)NC(=O)[C@H](CO)NC(=O)[C@H](C)NC(=O)[C@H](Cc1ccccc1)NC(=O)[C@@H]1CCCN1C(=O)[C@H](CO)NC(=O)[C@H](CCC(N)=O)NC(=O)[C@H](Cc1ccccc1)NC(=O)[C@H](CCC(=O)O)NC(=O)[C@H](CCC(=O)O)NC(=O)[C@H](CC(=O)O)NC(=O)[C@@H](NC(=O)[C@H](CCCNC(=N)N)NC(=O)[C@@H](N)Cc1ccccc1)C(C)C)C(=O)N[C@@H](Cc1c[nH]c2ccccc12)C(=O)N[C@@H](CCCNC(=N)N)C(=O)N1CCC[C@H]1C(=O)N[C@@H](CCCNC(=N)N)C(=O)N[C@@H](CC(N)=O)C(N)=O` [Agonist H] (H-FRVDEEFQSPFASQSRGYF[dL]WRPRN-NH2; N-terminus assumed), the IC50 at hNMUR1 was 1.25 nM.
